From patent US20090030088A1, “Therapeutic benefits of gossypol, 6-methoxy gossypol, and 6,6'-dimothxy gossypol” (Clemson University, priority 2007, published 2009)

How the values were obtained:
Trypanosome brucei cells = assay: Anti-trypanosomal activity, relative cell viability by flow cytometry; type: cell-based
Procedure: Anti-trypanosomal activities. Trypanosome brucei cells were grown in HMI-9 medium supplemented with 10% heat-inactivated fetal bovine serum and cultured as described by (13). Prior to treatment, 200 μL of the cells were seeded into 96-well tissue culture plate and treated with 2 μL of gossypol or methoxy gossypol derivatives dissolved in DMSO. After 24 hour incubation at 37° C. with 5% CO2 and 90-100% relative humidity, the cells were counted on a Becton Dickinson FACScan flow Cytometer, and the relative cell viability was calculated by comparing the vital cell number with control wells treated only with DMSO. Statistical Analysis. Each experiment was done at least three times, mean values were average of the triplicates, and the data were subjected to the analysis of variance (ANOVA).

plasmid DNA = assay: DNA strand scission assay (H2O2/UV hydroxyl radicals); parameters: species or system E. coli; details: no oxidative stress
Procedure: Analysis of DNA Strand Breakage. The DNA strand scission assay was performed as described by Keum et al., (11) with minor modifications. The plasmid DNA was prepared and purified from E. coli cultures by the method (12). The reaction mixture (15 μL) contained 10 mM Tris-HCl, 1 mM EDTA buffer (pH 8.0), plasmid DNA (1 μL), and H2O2 (0.04 M). Gossypol and methoxy gossypol derivatives dissolved in DMSO at the defined concentrations were added prior to H2O2 addition. Hydroxyl radicals were generated by irradiation of the reaction mixture at a distance of 30 cm with a 12 W UV lamp. After incubation at room temperature for 30 min, the reaction was stopped by adding a loading buffer (0.25% bromophenol blue tracking dye and 40% sucrose), and analyzed by 1% agarose gel electrophoresis. The gel was visualized by staining with ethidium bromide, and photographed on a transiluminator (Biorad).

[1] = system: SiHa (cervical cancer cell line); assay: Cancer cell proliferation assay (CellTiter 96), SiHa; type: cell-based; details: 10 ppm
Procedure: (§1) Anticancer Activities. Three cancer cell lines, MCF-7 (human breast cancer cell line), Caco-2 (human colon cancer cell line) and SiHa (cervical cancer cell line) were purchased from American Type Culture Collection (ATCC) (Rockville, Md.). MCF-7 and SiHa were cultured in RPMI-1640 with L-glutamine (2 mM), sodium pyruvate (1 mM), penicillin (100 unit/mL), streptomycin (0.1 mg/mL), 0.1 mM non-essential amino acids, 2.0 g/L sodium bicarbonate and 10% newborn calf serum. For Caco-2 cells, 10% fetal bovine serum was added instead of 10% newborn calf serum. All cell lines were incubated at 37° C. with 5% CO2 and 90-100% relative humidity. Medium renewal was carried out 2-3 times per week, and cells were subcultured when they were about 80-90% confluence.
(§2) Prior to chemical treatment, 10^4 cells/well (100 μL) were seeded into a 96-well tissue culture plate, and allowed to attach for 24 hours, then treated with defined concentrations of the tested chemicals in DMSO. Negative controls were cells treated with DMSO only, and DMSO concentration was kept 2% in each well. After 24 hour incubation, cell proliferation was determined using the CellTiter 96® aqueous nonradioactivity cell proliferation assay according to the manufacture's recommendations (Promega, Madison, Wis.) and recorded on universal EL800 Bio-Tek microplate reader at 490 nm.

[2] = DPPH free radical scavenging assay; details: for concentration to scavenge 50% free radicals (IC50 value): DPPH in DCM, 30 min
Procedure: DPPH Free Radical Scavenging Assay. Scavenging activities on DPPH free radicals by gossypol and methoxy gossypol derivatives were determined according to the method of (9) with slight modification. The reaction mixture was made by mixing 0.4 mL of sample solution in DCM and same volume of 0.25 mM DPPH in DCM, shaken vigorously, incubated for 30 min in the dark at room temperature, and measured spectrophotometrically at 517 nm. BHT, a common used antioxidant, was used as a standard for comparison. The lower absorbance of reaction mixture indicated higher free radical scavenging activity, and the reduction of DPPH free radicals was calculated as following: […]

[3] = system: MCF-7 (human breast cancer cell line); assay: Cancer cell proliferation assay (CellTiter 96), MCF-7; type: cell-based; details: 10 ppm
Procedure: as §1, §2

[4] = system: Caco-2 (human colon cancer cell line); assay: Cancer cell proliferation assay (CellTiter 96), Caco-2; type: cell-based; details: 10 ppm
Procedure: as §1, §2

Compound	inhibition at 1 ppm (Trypanosome brucei cells; 24 h, read-out: inhibition of trypanosome cell growth) [%]	DNA damage by the presence of the chemical alone (plasmid DNA)	cancer inhibitive activity compared with gossypol [1]	concentration to scavenge 50% free radicals (IC50 value) [2] [ppm]	free radicals scavenged ([2]; compound at 20 ppm) [%]	cancer inhibitive activity compared with gossypol [3]	cancer inhibitive activity compared with gossypol [4]	inhibition of trypanosome cell growth (Trypanosome brucei cells; 1 ppm, 24 hour incubation) [%]	free radicals scavenged ([2]; BHT at 1000 ppm) [%]	free radicals scavenged ([2]; BHT at 1500 ppm) [%]
Cc1cc2c(C(C)C)c(O)c(O)c(C=O)c2c(O)c1-c1c(C)cc2c(C(C)C)c(O)c(O)c(C=O)c2c1O [gossypol]	40	did not cause the DNA damage								
COc1c(O)c(C=O)c2c(O)c(-c3c(C)cc4c(C(C)C)c(OC)c(O)c(C=O)c4c3O)c(C)cc2c1C(C)C [6,6′-dimethoxy gossypol]			higher cancer inhibitive activity than gossypol	16.8	60	higher cancer inhibitive activity than gossypol	higher cancer inhibitive activity than gossypol			
COc1c(O)c(C=O)c2c(O)c(-c3c(C)cc4c(C(C)C)c(O)c(O)c(C=O)c4c3O)c(C)cc2c1C(C)C [6-methoxy gossypol]		did not cause the DNA damage	higher cancer inhibitive activity than gossypol	16.4	60	higher cancer inhibitive activity than gossypol	higher cancer inhibitive activity than gossypol	40		
Cc1cc(C(C)(C)C)c(O)c(C(C)(C)C)c1 [BHT, butylated hydroxytoluene, reference compound]									~60	75
